This data set can be described thus: physchem. Particulars: cells or culture medium.

The term fraction remaining denotes the share of the starting amount still present when the sample was taken.

Regarding `CC(C)C[C@@H]1NC(=O)[C@H](CO)NC(=O)[C@@H]2CSSC[C@@H]3NC(=O)[C@H]([C@@H](C)O)NC(=O)[C@H](C)NC(=O)[C@H](CC(=O)O)NC(=O)[C@H](CC(=O)O)NC(=O)[C@H](CSSC[C@H](NC(=O)[C@H](Cc4ccc(O)cc4)NC(=O)[C@@H](N)CCC(N)=O)C(=O)N[C@@H](C(C)C)C(=O)N4CCC[C@H]4C(=O)N[C@@H](C(C)C)C(=O)N[C@@H](CC(=O)O)C(=O)N[C@@H](CCC(N)=O)C(=O)N4CCC[C@H]4C(=O)N2)NC(=O)[C@H](CSSC[C@@H](C(=O)N[C@@H](CCCNC(=N)N)C(=O)N[C@@H](C)C(=O)O)NC(=O)[C@H](Cc2ccc(O)cc2)NC(=O)[C@H](Cc2ccc(O)cc2)NC(=O)[C@H](C(C)C)NC(=O)[C@H]([C@@H](C)O)NC(=O)[C@H](Cc2c[nH]cn2)NC(=O)CNC(=O)[C@H](CC(N)=O)NC(=O)[C@H](CCC(=O)O)NC(=O)[C@H](CC(N)=O)NC(=O)[C@H](CCCNC(=N)N)NC(=O)[C@H](CCC(=O)O)NC(=O)[C@H](CCC(N)=O)NC(=O)[C@H]([C@@H](C)O)NC3=O)NC(=O)[C@@H]2CCCN2C(=O)[C@H](CCC(N)=O)NC(=O)[C@H]([C@@H](C)O)NC(=O)[C@H](CC(N)=O)NC1=O` (single isomer, unassigned) [Peak 1], the amount remaining at 24 h is 5.6%.
